Test [1] deals with Z-138 cell line. Description: Z-138 Proliferation Assay (Cell Titer Glo, 5 days). Format: cell-based. The settings on record: Z-138 cells. From the text:
RPMI/Glutamax medium, penicillin-streptomycin, heat inactivated fetal bovine serum were purchased from Life Technologies, Grand Island, N.Y., USA. V-bottom polypropylene 384-well plates were purchased from Greiner Bio-One, Monroe, N.C., USA. Cell culture 384-well white opaque plates were purchased from Perkin Elmer, Waltham, Mass., USA. Cell-Titer Glo® was purchased from Promega Corporation, Madison, Wis., USA. SpectraMax M5 plate reader was purchased from Molecular Devices LLC, Sunnyvale, Calif., USA.
A compound source plate was prepared by performing triplicate nine-point 3-fold serial dilutions in DMSO, beginning at 10 mM (final top concentration of compound in the assay was 20 μM and the DMSO was 0.2%). A 100 nL aliquot from the compound stock plate was added to its respective well in the cell plate. […] After addition of compounds, assay plates were incubated for 5 days at 37° C., 5% CO2, relative humidity >90%. […] Luminescence was read in the SpectraMax M5 microplate reader. The concentration of compound inhibiting cell viability by 50% was determined using a 4-parametric fit of the normalized dose response curves.
A general note: ATP-based viability assays read luminescence as a measure of living cells.

Test [2] addresses PRMT5/MEP50 (Homo sapiens (Human), UniProt O14744). Put plainly: PRMT5 Biochemical Assay (PRMT5/MEP50 enzyme assay on peptide substrate, 3H-SAM Flashplate). The note with it: PRMT5/MEP50 biochemical assay; read-out: Biochemical IC50.
For test [3], the system named is symmetric di-methyl arginine in Z-138 cells. Put plainly: Z-138 Methylation Assay (In Cell Western for symmetric di-methyl arginine and DNA content). The settings on record: read-out: ICW EC50. Format: cell-based. From the text:
[formula] Where top and bottom are the normally allowed to float, but may be fixed at 100 or 0 respectively in a 3-parameter fit. The Hill Coefficient normally allowed to float but may also be fixed at 1 in a 3-parameter fit. Y is the % inhibition and X is the compound concentration.
RPMI/Glutamax medium, penicillin-streptomycin, heat inactivated fetal bovine serum, and D-PBS were purchased from Life Technologies, Grand Island, N.Y., USA. Odyssey blocking buffer, 800CW goat anti-rabbit IgG (H+L) antibody, and Licor Odyssey infrared scanner were purchased from Licor Biosciences, Lincoln, Nebr., USA. Symmetric di-methyl arginine antibody was purchased from EMD Millipore, Billerica, Mass., USA. 16% Paraformaldehyde was purchased from Electron Microscopy Sciences, Hatfield, Pa., USA.
Cell Treatment, in Cell Western (ICW) for Detection of Symmetric Di-Methyl Arginine and DNA Content.
Z-138 cells were seeded in assay medium at a concentration of 50,000 cells per mL to a 384-well cell culture plate with 50 μL per well. Compound (100 nL) from 384 well source plates was added directly to 384 well cell plate. Plates were incubated at 37° C., 5% CO2 for 96 hours. […] Plates were incubated at room temperature for 30 minutes then incubated at 37° C., 5% CO2 for 5 hours. After the incubation, 40 μL per well of 8% paraformaldehyde in PBS (16% paraformaldahyde was diluted to 8% in PBS) was added to each plate and incubated for 30 minutes. […] Next 30 μL per well of Odyssey blocking buffer were added to each plate and incubated 1 hour at room temperature. […]
First, the ratio for each well was determined by:
Each plate included fourteen control wells of DMSO only treatment (minimum inhibition) as well as fourteen control wells for maximum inhibition treated with 3 μM of a reference compound (Background wells). The average of the ratio values for each control type was calculated and used to determine the percent inhibition for each test well in the plate. […] Percent inhibition was determined and IC50 curves were generated using triplicate wells per concentration of compound.

Structures are written as SMILES. Read-outs that look alike come from different tables or passages of the source. Where only a bound is given, the exact number is not on record here.

Our source for the EC50 and IC50 values is patent US9675614B2, “PRMT5 inhibitors and uses thereof” (Epizyme, Inc., priority 2012, dated 2017).

For orientation: EC50 means the concentration at which the effect is half-maximal. A word on the IC50: it is the concentration that gives 50% inhibition.

Chain of PRMT5/MEP50 (O14744 other isoform, or with tags, fused parts or gaps): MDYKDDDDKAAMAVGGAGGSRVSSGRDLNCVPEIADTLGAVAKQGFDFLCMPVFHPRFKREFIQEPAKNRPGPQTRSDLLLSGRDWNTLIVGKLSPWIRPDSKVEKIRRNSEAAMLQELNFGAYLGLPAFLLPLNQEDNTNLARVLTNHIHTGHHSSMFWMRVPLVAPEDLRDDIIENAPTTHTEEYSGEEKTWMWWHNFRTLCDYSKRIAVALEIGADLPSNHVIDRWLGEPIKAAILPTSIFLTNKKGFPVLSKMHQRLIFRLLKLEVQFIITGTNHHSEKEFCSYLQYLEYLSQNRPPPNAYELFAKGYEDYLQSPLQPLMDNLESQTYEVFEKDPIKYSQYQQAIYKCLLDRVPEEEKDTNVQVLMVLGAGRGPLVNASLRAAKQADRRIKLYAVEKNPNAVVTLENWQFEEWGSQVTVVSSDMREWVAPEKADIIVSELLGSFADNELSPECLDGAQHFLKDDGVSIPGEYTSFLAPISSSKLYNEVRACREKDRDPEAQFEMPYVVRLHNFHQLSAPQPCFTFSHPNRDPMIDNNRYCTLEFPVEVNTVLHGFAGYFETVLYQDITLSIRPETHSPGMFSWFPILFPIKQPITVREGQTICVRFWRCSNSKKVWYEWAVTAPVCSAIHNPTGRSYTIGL
Chain of PRMT5/MEP50 (Q9BQA1 other isoform, or with tags, fused parts or gaps partner): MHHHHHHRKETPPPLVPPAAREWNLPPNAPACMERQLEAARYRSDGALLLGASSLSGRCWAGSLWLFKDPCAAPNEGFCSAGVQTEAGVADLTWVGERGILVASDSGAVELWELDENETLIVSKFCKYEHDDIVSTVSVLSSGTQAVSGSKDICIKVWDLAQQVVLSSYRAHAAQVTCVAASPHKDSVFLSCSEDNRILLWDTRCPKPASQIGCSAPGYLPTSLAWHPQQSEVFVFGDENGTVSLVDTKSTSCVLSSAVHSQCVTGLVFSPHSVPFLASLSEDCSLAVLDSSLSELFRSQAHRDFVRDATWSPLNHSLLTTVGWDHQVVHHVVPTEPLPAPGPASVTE

`CN1CCC(Oc2cccc(C(=O)NCC(O)CN3CCc4ccccc4C3)c2)C1` (stereo not shown) [Compound 120]: the EC50 in test [1] lay in the range of 1000 to 10000 nM; in test [3] (Homo sapiens) it was 101 to 1000 nM. Besides, the IC50 in test [2] was less than 100 nM.
For `CN1CCC(Oc2cccc(C(=O)NCC(O)CN3CCc4ccccc4C3)c2)C1` (stereo not shown) [Compound 134], the IC50 in test [2] was less than 100 nM. For the same molecule, the EC50 in test [3] fell in the range of 101 to 1000 nM.
For the molecule `CN1CCC(Oc2cc(C(=O)NC[C@H](O)CN3CCc4ccccc4C3)ncn2)CC1` [Compound 206], the EC50 in test [1] (Homo sapiens, Z-138, 120 h) lay within 1000 to 10000 nM; in test [3] (Homo sapiens) it was 101 to 1000 nM. Also, the IC50 in test [2] was less than 100 nM.
Regarding `O=C(NC[C@H](O)CN1CCc2ccccc2C1)c1ccc2c(c1O)NCCC2` [Compound 328], the IC50 in test [2] fell in the range of 1000 to 10000 nM.
`COCCN1CCC(Oc2ccc(C(=O)NC[C@H](O)CN3CCc4ccccc4C3)cc2)CC1` [Compound 329]: in test [2], the IC50 was less than 100 nM.
Turning to `O=C(NC[C@H](O)CN1CCc2ccccc2C1)c1ccc(OC2CCN(Cc3ccccc3)CC2)cc1` [Compound 330], in test [2], the IC50 is less than 100 nM.
Same read-out and setting: the result for `O=C(NC[C@H](O)CN1CCc2ccccc2C1)c1ccc(OC2CCN(Cc3ccncc3)CC2)cc1` [Compound 331] reads less than 100 nM; that for `COc1cc(C(=O)NC[C@H](O)CN2CCc3ccccc3C2)cc(NC2CCC2)n1` [Compound 332], less than 100 nM.
Consider `CN(c1cc(C(=O)NC[C@H](O)CN2CCc3ccccc3C2)ccn1)C1CCC1` [Compound 333], for which the IC50 in test [2] was less than 100 nM.
Same read-out and setting: the result for `O=C(NC[C@H](O)CN1CCc2ccccc2C1)c1ccnc(NC2CCCC2)c1` [Compound 334] reads less than 100 nM; that for `O=C(NC[C@H](O)CN1CCc2ccccc2C1)c1ccnc(NC2CCCCC2)c1` [Compound 335], less than 100 nM.
